Assay: amounts of β-lactam antibiotic, β-lactamase inhibitor (C18 reverse-phase LC, UV-VIS) and aminoglycoside (HPLC-ELSD) in solution over time
Type: physicochemical

## CO/N=C(\C(=O)N[C@@H]1C(=O)N2C(C(=O)O)=C(CSc3nc(C)c(CC(=O)O)s3)CS[C@H]12)c1csc(N)n1 [Cefodizime sodium]
Example 12: freeze-dried cefodizime sodium, citrate pH 6.75, 7 days 0° C., in 100 mL 5% fructose + etimicin sulfate 200 mg, Time 0 h
  amount of component as percentage with respect to the amount at the initial time: 99.01%
Example 12: freeze-dried cefodizime sodium, citrate pH 6.75, 7 days 0° C., in 100 mL 5% fructose + etimicin sulfate 200 mg, Time 1 h
  amount of component as percentage with respect to the amount at the initial time: 103.8%
Example 12: freeze-dried cefodizime sodium, citrate pH 6.75, 7 days 0° C., in 100 mL 5% fructose + etimicin sulfate 200 mg, Time 2 h
  amount of component as percentage with respect to the amount at the initial time: 98.33%
Example 12: freeze-dried cefodizime sodium, citrate pH 6.75, 7 days 0° C., in 100 mL 5% fructose + etimicin sulfate 200 mg, Time 4 h
  amount of component as percentage with respect to the amount at the initial time: 98.99%
Example 12: freeze-dried cefodizime sodium, citrate pH 6.75, 7 days 0° C., in 100 mL 5% fructose + etimicin sulfate 200 mg, Time 6 h
  amount of component as percentage with respect to the amount at the initial time: 97.89%
Example 12: freeze-dried cefodizime sodium, citrate pH 6.75, 7 days 0° C., in 100 mL 5% fructose + etimicin sulfate 200 mg, Time 8 h
  amount of component as percentage with respect to the amount at the initial time: 92.52%
Example 18: cefodizime sodium 1 g, etimicin sulfate 200 mg, citrate pH 6.75, 200 mL water, room temperature, Time 0 h
  amount of component as percentage with respect to the amount at the initial time: 99.01%
Example 18: cefodizime sodium 1 g, etimicin sulfate 200 mg, citrate pH 6.75, 200 mL water, room temperature, Time 1 h
  amount of component as percentage with respect to the amount at the initial time: 103.8%
Example 18: cefodizime sodium 1 g, etimicin sulfate 200 mg, citrate pH 6.75, 200 mL water, room temperature, Time 2 h
  amount of component as percentage with respect to the amount at the initial time: 98.33%
Example 18: cefodizime sodium 1 g, etimicin sulfate 200 mg, citrate pH 6.75, 200 mL water, room temperature, Time 4 h
  amount of component as percentage with respect to the amount at the initial time: 98.99%
Example 18: cefodizime sodium 1 g, etimicin sulfate 200 mg, citrate pH 6.75, 200 mL water, room temperature, Time 6 h
  amount of component as percentage with respect to the amount at the initial time: 97.89%
Example 18: cefodizime sodium 1 g, etimicin sulfate 200 mg, citrate pH 6.75, 200 mL water, room temperature, Time 8 h
  amount of component as percentage with respect to the amount at the initial time: 92.52%

## CO/N=C(\C(=O)N[C@@H]1C(=O)N2C(C(=O)O)=C(CSc3nc(=O)c(=O)[nH]n3C)CS[C@H]12)c1csc(N)n1 [Ceftriaxone sodium]
Example 7: ceftriaxone sodium 4 g, sulbactam sodium 1 g, gentamicin sulfate 80 mg, citrate pH 6.75, 200 mL water, room temperature (22° C.), Time 0 h
  amount of component as percentage with respect to the amount at the initial time: 97.01%
Example 7: ceftriaxone sodium 4 g, sulbactam sodium 1 g, gentamicin sulfate 80 mg, citrate pH 6.75, 200 mL water, room temperature (22° C.), Time 1 h
  amount of component as percentage with respect to the amount at the initial time: 100.3%
Example 7: ceftriaxone sodium 4 g, sulbactam sodium 1 g, gentamicin sulfate 80 mg, citrate pH 6.75, 200 mL water, room temperature (22° C.), Time 2 h
  amount of component as percentage with respect to the amount at the initial time: 96.40%
Example 7: ceftriaxone sodium 4 g, sulbactam sodium 1 g, gentamicin sulfate 80 mg, citrate pH 6.75, 200 mL water, room temperature (22° C.), Time 4 h
  amount of component as percentage with respect to the amount at the initial time: 99.01%
Example 7: ceftriaxone sodium 4 g, sulbactam sodium 1 g, gentamicin sulfate 80 mg, citrate pH 6.75, 200 mL water, room temperature (22° C.), Time 6 h
  amount of component as percentage with respect to the amount at the initial time: 98.91%
Example 7: ceftriaxone sodium 4 g, sulbactam sodium 1 g, gentamicin sulfate 80 mg, citrate pH 6.75, 200 mL water, room temperature (22° C.), Time 8 h
  amount of component as percentage with respect to the amount at the initial time: 99.53%
Example 8: freeze-dried ceftriaxone sodium, tazobactam sodium, gentamicin sulfate, citrate pH 6.75, 2.5% fructose, 7 days 0° C., in 100 mL water, Time 0 h
  amount of component as percentage with respect to the amount at the initial time: 98.75%
Example 8: freeze-dried ceftriaxone sodium, tazobactam sodium, gentamicin sulfate, citrate pH 6.75, 2.5% fructose, 7 days 0° C., in 100 mL water, Time 1 h
  amount of component as percentage with respect to the amount at the initial time: 100.1%
Example 8: freeze-dried ceftriaxone sodium, tazobactam sodium, gentamicin sulfate, citrate pH 6.75, 2.5% fructose, 7 days 0° C., in 100 mL water, Time 2 h
  amount of component as percentage with respect to the amount at the initial time: 99.97%
Example 8: freeze-dried ceftriaxone sodium, tazobactam sodium, gentamicin sulfate, citrate pH 6.75, 2.5% fructose, 7 days 0° C., in 100 mL water, Time 4 h
  amount of component as percentage with respect to the amount at the initial time: 98.87%
Example 8: freeze-dried ceftriaxone sodium, tazobactam sodium, gentamicin sulfate, citrate pH 6.75, 2.5% fructose, 7 days 0° C., in 100 mL water, Time 6 h
  amount of component as percentage with respect to the amount at the initial time: 99.27%
Example 8: freeze-dried ceftriaxone sodium, tazobactam sodium, gentamicin sulfate, citrate pH 6.75, 2.5% fructose, 7 days 0° C., in 100 mL water, Time 8 h
  amount of component as percentage with respect to the amount at the initial time: 100.5%
Example 9: freeze-dried ceftriaxone sodium, citrate pH 6.75, 7 days 0° C., in 100 mL 5% fructose solution, Time 0 h
  amount of component as percentage with respect to the amount at the initial time: 97.27%
Example 9: freeze-dried ceftriaxone sodium, citrate pH 6.75, 7 days 0° C., in 100 mL 5% fructose solution, Time 1 h
  amount of component as percentage with respect to the amount at the initial time: 99.38%
Example 9: freeze-dried ceftriaxone sodium, citrate pH 6.75, 7 days 0° C., in 100 mL 5% fructose solution, Time 2 h
  amount of component as percentage with respect to the amount at the initial time: 99.95%
Example 9: freeze-dried ceftriaxone sodium, citrate pH 6.75, 7 days 0° C., in 100 mL 5% fructose solution, Time 4 h
  amount of component as percentage with respect to the amount at the initial time: 97.81%
Example 9: freeze-dried ceftriaxone sodium, citrate pH 6.75, 7 days 0° C., in 100 mL 5% fructose solution, Time 6 h
  amount of component as percentage with respect to the amount at the initial time: 99.03%
Example 9: freeze-dried ceftriaxone sodium, citrate pH 6.75, 7 days 0° C., in 100 mL 5% fructose solution, Time 8 h
  amount of component as percentage with respect to the amount at the initial time: 98.51%
Example 19: ceftriaxone sodium 2 g, sulbactam sodium 2 g, gentamicin sulfate 160 mg, citrate pH 6.75, 200 mL water, room temperature, Time 0 h
  amount of component as percentage with respect to the amount at the initial time: 97.01%
Example 19: ceftriaxone sodium 2 g, sulbactam sodium 2 g, gentamicin sulfate 160 mg, citrate pH 6.75, 200 mL water, room temperature, Time 1 h
  amount of component as percentage with respect to the amount at the initial time: 100.3%
Example 19: ceftriaxone sodium 2 g, sulbactam sodium 2 g, gentamicin sulfate 160 mg, citrate pH 6.75, 200 mL water, room temperature, Time 2 h
  amount of component as percentage with respect to the amount at the initial time: 96.40%
Example 19: ceftriaxone sodium 2 g, sulbactam sodium 2 g, gentamicin sulfate 160 mg, citrate pH 6.75, 200 mL water, room temperature, Time 4 h
  amount of component as percentage with respect to the amount at the initial time: 99.01%
Example 19: ceftriaxone sodium 2 g, sulbactam sodium 2 g, gentamicin sulfate 160 mg, citrate pH 6.75, 200 mL water, room temperature, Time 6 h
  amount of component as percentage with respect to the amount at the initial time: 98.91%
Example 19: ceftriaxone sodium 2 g, sulbactam sodium 2 g, gentamicin sulfate 160 mg, citrate pH 6.75, 200 mL water, room temperature, Time 8 h
  amount of component as percentage with respect to the amount at the initial time: 99.53%
Example 20: ceftriaxone sodium 2 g, tazobactam sodium 2 g, gentamicin sulfate 160 mg, citrate pH 6.75, 200 mL water, room temperature, Time 0 h
  amount of component as percentage with respect to the amount at the initial time: 98.75%
Example 20: ceftriaxone sodium 2 g, tazobactam sodium 2 g, gentamicin sulfate 160 mg, citrate pH 6.75, 200 mL water, room temperature, Time 1 h
  amount of component as percentage with respect to the amount at the initial time: 100.1%
Example 20: ceftriaxone sodium 2 g, tazobactam sodium 2 g, gentamicin sulfate 160 mg, citrate pH 6.75, 200 mL water, room temperature, Time 2 h
  amount of component as percentage with respect to the amount at the initial time: 99.97%
Example 20: ceftriaxone sodium 2 g, tazobactam sodium 2 g, gentamicin sulfate 160 mg, citrate pH 6.75, 200 mL water, room temperature, Time 4 h
  amount of component as percentage with respect to the amount at the initial time: 98.87%
Example 20: ceftriaxone sodium 2 g, tazobactam sodium 2 g, gentamicin sulfate 160 mg, citrate pH 6.75, 200 mL water, room temperature, Time 6 h
  amount of component as percentage with respect to the amount at the initial time: 99.27%
Example 20: ceftriaxone sodium 2 g, tazobactam sodium 2 g, gentamicin sulfate 160 mg, citrate pH 6.75, 200 mL water, room temperature, Time 8 h
  amount of component as percentage with respect to the amount at the initial time: 100.5%

## CCN[C@@H]1C[C@H](N)[C@@H](O[C@H]2O[C@H](CN)CC[C@H]2N)[C@H](O)[C@H]1O[C@H]1OC[C@](C)(O)[C@H](NC)[C@H]1O.O=S(=O)(O)O [Etimicin sulfate, etimicin sulfate]
Example 6: freeze-dried cefoperazone sodium 4 g, sulbactam sodium 1 g, citrate pH 6.75, + etimicin sulfate 200 mg, 7 days 0° C., dissolved in 100 mL water, Time 0 h
  amount of component as percentage with respect to the amount at the initial time: 108.9%
Example 6: freeze-dried cefoperazone sodium 4 g, sulbactam sodium 1 g, citrate pH 6.75, + etimicin sulfate 200 mg, 7 days 0° C., dissolved in 100 mL water, Time 1 h
  amount of component as percentage with respect to the amount at the initial time: 100.2%
Example 6: freeze-dried cefoperazone sodium 4 g, sulbactam sodium 1 g, citrate pH 6.75, + etimicin sulfate 200 mg, 7 days 0° C., dissolved in 100 mL water, Time 2 h
  amount of component as percentage with respect to the amount at the initial time: 100.5%
Example 6: freeze-dried cefoperazone sodium 4 g, sulbactam sodium 1 g, citrate pH 6.75, + etimicin sulfate 200 mg, 7 days 0° C., dissolved in 100 mL water, Time 4 h
  amount of component as percentage with respect to the amount at the initial time: 100.4%
Example 6: freeze-dried cefoperazone sodium 4 g, sulbactam sodium 1 g, citrate pH 6.75, + etimicin sulfate 200 mg, 7 days 0° C., dissolved in 100 mL water, Time 6 h
  amount of component as percentage with respect to the amount at the initial time: 100.4%
Example 6: freeze-dried cefoperazone sodium 4 g, sulbactam sodium 1 g, citrate pH 6.75, + etimicin sulfate 200 mg, 7 days 0° C., dissolved in 100 mL water, Time 8 h
  amount of component as percentage with respect to the amount at the initial time: 97.50%
Example 10: mezlocillin sodium 2 g, sulbactam sodium 0.5 g, etimicin sulfate 200 mg, citrate pH 6.5, 200 mL water, room temperature, Time 0 h
  amount of component as percentage with respect to the amount at the initial time: 100.1%
Example 10: mezlocillin sodium 2 g, sulbactam sodium 0.5 g, etimicin sulfate 200 mg, citrate pH 6.5, 200 mL water, room temperature, Time 1 h
  amount of component as percentage with respect to the amount at the initial time: 100.6%
Example 10: mezlocillin sodium 2 g, sulbactam sodium 0.5 g, etimicin sulfate 200 mg, citrate pH 6.5, 200 mL water, room temperature, Time 2 h
  amount of component as percentage with respect to the amount at the initial time: 99.79%
Example 11: freeze-dried mezlocillin sodium, sulbactam sodium, citrate pH 6.5, 7 days 0° C., in 100 mL 5% fructose + etimicin sulfate 200 mg, Time 0 h
  amount of component as percentage with respect to the amount at the initial time: 100.1%
Example 11: freeze-dried mezlocillin sodium, sulbactam sodium, citrate pH 6.5, 7 days 0° C., in 100 mL 5% fructose + etimicin sulfate 200 mg, Time 1 h
  amount of component as percentage with respect to the amount at the initial time: 100.4%
Example 11: freeze-dried mezlocillin sodium, sulbactam sodium, citrate pH 6.5, 7 days 0° C., in 100 mL 5% fructose + etimicin sulfate 200 mg, Time 2 h
  amount of component as percentage with respect to the amount at the initial time: 99.31%
Example 11: freeze-dried mezlocillin sodium, sulbactam sodium, citrate pH 6.5, 7 days 0° C., in 100 mL 5% fructose + etimicin sulfate 200 mg, Time 4 h
  amount of component as percentage with respect to the amount at the initial time: 99.56%
Example 11: freeze-dried mezlocillin sodium, sulbactam sodium, citrate pH 6.5, 7 days 0° C., in 100 mL 5% fructose + etimicin sulfate 200 mg, Time 6 h
  amount of component as percentage with respect to the amount at the initial time: 99.61%
Example 11: freeze-dried mezlocillin sodium, sulbactam sodium, citrate pH 6.5, 7 days 0° C., in 100 mL 5% fructose + etimicin sulfate 200 mg, Time 8 h
  amount of component as percentage with respect to the amount at the initial time: 99.25%

Reference: patent US20090156518A1, “STABLE PHARMACEUTICAL COMPOSITION COMPRISING BETA-LACTAM ANTIBIOTIC AND BUFFER” (priority 2006, published 2009)
